Experimental data as given in ChEMBL document CHEMBL1201862, “PubChem BioAssay data set” (2004).
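Cells were grown in 96-well plates and exposed to each compound for 48 hours at five concentrations; endpoints were interpolated linearly between bracketing concentrations, or set to the highest concentration if not reached. GI50 is the concentration that inhibits growth by half.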 The source made the active and inactive calls. Cut-off read from the data, not from the text of the source: active = GI50 up to about 1.1 µM and inactive = higher.

Tests used:
Experiment in all cases: DTP human tumour cell line panel, 48 h
SN12C = system: SN12C
UACC-62 = system: UACC-62
OVCAR-8 = system: OVCAR-8
SK-MEL-5 = system: SK-MEL-5
SNB-75 = system: SNB-75
SW-620 = system: SW-620
CAKI-1 = system: CAKI-1
K562 = system: K562
786-0 = system: 786-0
A498 = system: A498
M14 = system: M14
NCI-H23 = system: NCI-H23
HCT-116 = system: HCT-116
OVCAR-3 = system: OVCAR-3
PC-3 = system: PC-3
NCI-H226 = system: NCI-H226
SF-295 = system: SF-295
SK-MEL-28 = system: SK-MEL-28
KM12 = system: KM12
MOLT-4 = system: MOLT-4

SMILES | GI50 (SN12C) | GI50 (UACC-62) | GI50 (OVCAR-8) | GI50 (SK-MEL-5) | GI50 (SNB-75) | GI50 (SW-620) | GI50 (CAKI-1) | GI50 (K562) | GI50 (786-0) | GI50 (A498) | GI50 (M14) | GI50 (NCI-H23) | GI50 (HCT-116) | GI50 (OVCAR-3) | GI50 (PC-3) | GI50 (NCI-H226) | GI50 (SF-295) | GI50 (SK-MEL-28) | GI50 (KM12) | GI50 (MOLT-4)
CO[C@H]1[C@@H](O)[C@@H](O)O[C@@H](O[C@H]2CC[C@@]3(C)[C@H](CC[C@@H]4[C@@H]3[C@H](O)C[C@]3(C)[C@@H](C5=CC(=O)OC5)CC[C@]43O)C2)[C@@H]1O | 0.064 µM (active) | 0.355 µM (active) | 0.33 µM (active) | 0.136 µM (active) | 0.354 µM (active) | 0.257 µM (active) | 0.111 µM (active) | 0.175 µM (active) | 0.296 µM (active) | 0.184 µM (active) | 0.283 µM (active) | 0.113 µM (active) | 0.178 µM (active) | 0.112 µM (active) | 0.283 µM (active) | 0.69 µM (active) | 0.141 µM (active) | 0.622 µM (active) | 0.698 µM (active) | 0.0304 µM (active)
COc1ccccc1/C=C/c1c(N)ncnc1Nc1cccc(Cl)c1 | 13.5 µM (inactive) | 16.6 µM (inactive) | 25.4 µM (inactive) | 22 µM (inactive) | 9.53 µM (inactive) | 34 µM (inactive) | 20.9 µM (inactive) | 0.376 µM (active) | 11.9 µM (inactive) | 12.7 µM (inactive) | 26.5 µM (inactive) | 20.8 µM (inactive) | 23.5 µM (inactive) | 25.2 µM (inactive) | 0.164 µM (active) | 17.4 µM (inactive) | 26.2 µM (inactive) | 16.4 µM (inactive) | 36.5 µM (inactive) | 0.311 µM (active)
C=C(C)C(=O)OC1C[C@H](COC(C)=O)C2CC=C(C)C2C2OC(=O)C(=C)[C@H]12 (stereo not given in full) | 4.97 µM (inactive) | 4.54 µM (inactive) | 5.31 µM (inactive) | 7.5 µM (inactive) | 10.8 µM (inactive) | 2.23 µM (inactive) | 2.81 µM (inactive) | 1.87 µM (inactive) | 2.98 µM (inactive) | 14.3 µM (inactive) | 2.07 µM (inactive) | 4.26 µM (inactive) | 1.67 µM (inactive) | 2.19 µM (inactive) | 7.24 µM (inactive) | 17.3 µM (inactive) | 17.1 µM (inactive) | 2.41 µM (inactive) | 11.7 µM (inactive) | 1.72 µM (inactive)
c1ccc2c(c1)c(N1CCCCC1)cc1nc3c(cc(N4CCCCC4)c4ccccc43)nc12 | > 100 µM (inactive) | > 100 µM (inactive) | > 100 µM (inactive) | > 100 µM (inactive) | 11.9 µM (inactive) | > 100 µM (inactive) | > 100 µM (inactive) | > 100 µM (inactive) | > 100 µM (inactive) | > 100 µM (inactive) | > 100 µM (inactive) | > 100 µM (inactive) | > 100 µM (inactive) | > 100 µM (inactive) | > 100 µM (inactive) | > 100 µM (inactive) | > 100 µM (inactive) | > 100 µM (inactive) | > 100 µM (inactive) | > 100 µM (inactive)
CC(C)(C)[Si](C)(C)OCC1OC(n2ccc(=O)[nH]c2=O)C(O[Si](C)(C)C(C)(C)C)[C@]12O[C@@H]2CO (stereo not given in full) | 15.7 µM (inactive) | 16.3 µM (inactive) | 29 µM (inactive) | 14 µM (inactive) | 18.4 µM (inactive) | 20.2 µM (inactive) | 20.4 µM (inactive) | 23.3 µM (inactive) | 18.2 µM (inactive) | 18.6 µM (inactive) | 14.4 µM (inactive) | 14.1 µM (inactive) | 11.3 µM (inactive) | 14.9 µM (inactive) | 4.58 µM (inactive) | 13.8 µM (inactive) | 10.3 µM (inactive) | 15.9 µM (inactive) | 14.8 µM (inactive) | 8.3 µM (inactive)
CCOC(=O)C(NS(=O)(=O)c1ccccc1)(C(F)(F)F)P(=O)(OCC(C)C)OCC(C)C (stereo not given) | > 100 µM (inactive) | > 100 µM (inactive) | > 100 µM (inactive) | > 100 µM (inactive) | > 100 µM (inactive) | > 100 µM (inactive) | > 100 µM (inactive) | > 100 µM (inactive) | > 100 µM (inactive) | > 100 µM (inactive) | > 100 µM (inactive) | > 100 µM (inactive) | > 100 µM (inactive) | > 100 µM (inactive) | > 100 µM (inactive) | > 100 µM (inactive) | > 100 µM (inactive) | > 100 µM (inactive) | > 100 µM (inactive) | > 100 µM (inactive)
O=C1Sc2ccc(Br)cc2C(=O)Sc2ccccc21 | 14.5 µM (inactive) | 16.8 µM (inactive) | 9.84 µM (inactive) | 14.4 µM (inactive) | 12.5 µM (inactive) | 17.9 µM (inactive) | 14.6 µM (inactive) | 12.8 µM (inactive) | 11 µM (inactive) | 20.9 µM (inactive) | 11.4 µM (inactive) | 15.7 µM (inactive) | 13 µM (inactive) | 12.5 µM (inactive) | 13 µM (inactive) | 18.5 µM (inactive) | 22.4 µM (inactive) | 19.5 µM (inactive) | 16 µM (inactive) | 4.34 µM (inactive)
O=C1Cc2c(-c3ccccc3)cc(-c3ccc(Cl)cc3)nc2-c2ccccc2N1 | 3.33 µM (inactive) | 5.57 µM (inactive) | 2.37 µM (inactive) | 3.65 µM (inactive) | 2.03 µM (inactive) | 6.7 µM (inactive) | 3.91 µM (inactive) | 19 µM (inactive) | 1.73 µM (inactive) | 1.75 µM (inactive) | 9.95 µM (inactive) | 4.03 µM (inactive) | 1.98 µM (inactive) | 8.73 µM (inactive) | 10.1 µM (inactive) | 3.07 µM (inactive) | 5.89 µM (inactive) | 2.94 µM (inactive) | 7.89 µM (inactive) | 7.8 µM (inactive)
CC(=O)[C@@]1(O)CC[C@H]2[C@@H]3C[C@H](C)C4=CC(=O)C=C[C@]4(C)[C@@]3(F)[C@@H](O)C[C@@]21C [FLUOROMETHOLONE] | > 100 µM (inactive) | > 100 µM (inactive) | > 69.7 µM (inactive) | > 100 µM (inactive) | 69.5 µM (inactive) | > 100 µM (inactive) | > 100 µM (inactive) | > 100 µM (inactive) | > 100 µM (inactive) | > 100 µM (inactive) | > 100 µM (inactive) | > 100 µM (inactive) | > 100 µM (inactive) | > 100 µM (inactive) | > 59.3 µM (inactive) | > 11.3 µM (inactive) | > 100 µM (inactive) | > 100 µM (inactive) | > 100 µM (inactive) | > 100 µM (inactive)
NC(=O)NOCC1NC(=O)NC1=O (stereo not given) | > 100 µM (inactive) | > 100 µM (inactive) | > 100 µM (inactive) | > 100 µM (inactive) | > 100 µM (inactive) | > 100 µM (inactive) | > 100 µM (inactive) | > 100 µM (inactive) | > 100 µM (inactive) | > 100 µM (inactive) | > 100 µM (inactive) | > 100 µM (inactive) | > 100 µM (inactive) | > 100 µM (inactive) | > 100 µM (inactive) | > 100 µM (inactive) | > 100 µM (inactive) | > 100 µM (inactive) | > 100 µM (inactive) | > 100 µM (inactive)
O=C1OC(C2=CC(=O)c3ccccc3C2=O)C(Cl)=C1Cl (stereo not given) | 18.3 µM (inactive) | 17.4 µM (inactive) | 13.7 µM (inactive) | 31.1 µM (inactive) | 37.2 µM (inactive) | 35.2 µM (inactive) | 67.9 µM (inactive) | 32.7 µM (inactive) | 17.9 µM (inactive) | 42.8 µM (inactive) | 39.3 µM (inactive) | 24.4 µM (inactive) | 32.4 µM (inactive) | 33.1 µM (inactive) | 27.3 µM (inactive) | 27.2 µM (inactive) | 86.5 µM (inactive) | 41 µM (inactive) | 77.4 µM (inactive) | 34.4 µM (inactive)
CCCC(=O)NC(Nc1ccc(F)cc1)(C(F)(F)F)C(F)(F)F | > 100 µM (inactive) | 1.09 µM (active) | 24.1 µM (inactive) | 1.03 µM (active) | > 100 µM (inactive) | 2.84 µM (inactive) | > 100 µM (inactive) | 0.1 µM (active) | > 100 µM (inactive) | > 100 µM (inactive) | 0.387 µM (active) | > 43.4 µM (inactive) | 19.8 µM (inactive) | > 100 µM (inactive) | 19.1 µM (inactive) | > 100 µM (inactive) | 24.5 µM (inactive) | > 75.2 µM (inactive) | 2.49 µM (inactive) | 7.98 µM (inactive)
COC(=O)[C@@H]1C=C[C@H](OC2OC(COC(C)=O)C(OC(C)=O)C(OC(C)=O)C2OC(C)=O)n2c(=O)c3ccccc3c(=O)n21 (stereo not given in full) | > 10 µM (inactive) | 9.93 µM (inactive) | 16.5 µM (inactive) | 14.7 µM (inactive) | 6.71 µM (inactive) | 12.4 µM (inactive) | 3.45 µM (inactive) | 5.66 µM (inactive) | 16.1 µM (inactive) | 12.2 µM (inactive) | 15.3 µM (inactive) | 18.6 µM (inactive) | 10.9 µM (inactive) | 10.4 µM (inactive) | 6.62 µM (inactive) | 19.7 µM (inactive) | 18.8 µM (inactive) | 13.2 µM (inactive) | 10.7 µM (inactive) | 11.8 µM (inactive)
